In patent US20260240831A1, “CANCER STRATIFICATION AND TREATMENT” (Deutsches Krebsforschungszentrum Stiftung des öffentlichen …, priority 2023, published 2026):

Test system: GBM cells for SFRP1 overexpression
Test: SFRP1 inhibitor treatment of tumour-bearing human brain organoids, KI-67 immunohistochemistry
Format: cell-based
Conditions: 25 μM, 2 days, vs DMSO control; SFRP1-overexpressing GBM cells in human brain organoids
Protocol: Lentivirally transduced GBM cells for SFRP1 overexpression were injected into day 116-old human brain organoids and cultured in brain Organoid Differentiation Medium with Vitamin A. Injected organoids were maintained for 15 days on an orbital shaker (70 RPM) at 5% CO2 and 37° C. After 15 days, organoids were transferred to culturing medium supplemented with 25 μM of SFRP1 inhibitor WAY-316606 or 25 μM DMSO as a control. Tumour-bearing organoids were maintained for 2 more days and then fixed with 4% formaldehyde for 1 hour at 4° C. on a roller. Fixed organoids were first placed in 10% sucrose in PBS until tissues sank, then transferred to 30% sucrose in PBS. Organoids were then embedded in OCT compound (Tissue-Tek). […]
Confocal images of human brain organoids injected with GBM m-Cherry- and sFRP1-expressing cells that were treated with DMSO or sFRP1 inhibitor. Organoids were stained against Ki67 and mCherry and Ki67+/mCherry+ cells were quantified. […] The tumor origin of segmented cells was determined by assessing background corrected mean fluorescence intensities of the 2D integrated mCherry signal. The count of detected Ki67+/mCherry+ cells was then normalized to the imaged organoid volume yielding a density metric representing cycling tumor cells in both WAY inhibitor treated and DMSO control samples.

Which “number of proliferating (KI-67+/mCherry+) tumor cells” value does the source give for `O=S(=O)(NC1CCNCC1)c1cc(S(=O)(=O)c2ccccc2)ccc1C(F)(F)F` [WAY-316606, 5-(phenylsulfonyl)-N-4-piperidinyl-2-(trifluoromethyl)-benzenesulfonamide] here?
The value was “drastically increases the number of proliferating cells”.
